ChEMBL document CHEMBL5696441 (Nat Chem Biol, 2011)

Legend:
[1] = biological target: T1, Mitogen-activated protein kinase kinase kinase kinase 2 (Homo sapiens) (UniProt Q12851); test: Inhibition of MAP4K2 (unknown origin) assessed as remaining activity at 1 uM by Kinome scan method relative to control
T1 sequence (whole entry): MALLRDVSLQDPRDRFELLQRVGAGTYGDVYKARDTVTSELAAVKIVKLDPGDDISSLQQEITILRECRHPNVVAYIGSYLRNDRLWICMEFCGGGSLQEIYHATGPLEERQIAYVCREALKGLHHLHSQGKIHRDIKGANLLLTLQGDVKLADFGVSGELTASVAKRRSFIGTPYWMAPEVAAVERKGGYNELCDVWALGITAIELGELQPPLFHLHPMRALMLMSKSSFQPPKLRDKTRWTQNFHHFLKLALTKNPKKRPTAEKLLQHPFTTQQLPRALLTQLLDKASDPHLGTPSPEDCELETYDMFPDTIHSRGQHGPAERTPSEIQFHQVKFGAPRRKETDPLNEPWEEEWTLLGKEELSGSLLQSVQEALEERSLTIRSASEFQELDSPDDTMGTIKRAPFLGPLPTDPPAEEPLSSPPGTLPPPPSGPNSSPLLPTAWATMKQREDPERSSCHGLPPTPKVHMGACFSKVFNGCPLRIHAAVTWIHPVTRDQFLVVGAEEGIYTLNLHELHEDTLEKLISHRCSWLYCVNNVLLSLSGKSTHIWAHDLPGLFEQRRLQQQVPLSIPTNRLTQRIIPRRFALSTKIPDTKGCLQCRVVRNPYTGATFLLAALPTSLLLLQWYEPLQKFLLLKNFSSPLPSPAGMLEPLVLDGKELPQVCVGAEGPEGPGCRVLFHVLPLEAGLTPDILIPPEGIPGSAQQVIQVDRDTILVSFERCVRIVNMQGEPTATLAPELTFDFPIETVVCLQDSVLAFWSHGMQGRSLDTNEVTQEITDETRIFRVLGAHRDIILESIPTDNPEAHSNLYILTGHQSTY

[2] = biological target: T2, Calcium/calmodulin-dependent protein kinase type IV (Homo sapiens) (UniProt Q16566); test: Inhibition of CAMK4 (unknown origin) assessed as remaining activity at 1 uM by Kinome scan method relative to control
T2 sequence (whole entry): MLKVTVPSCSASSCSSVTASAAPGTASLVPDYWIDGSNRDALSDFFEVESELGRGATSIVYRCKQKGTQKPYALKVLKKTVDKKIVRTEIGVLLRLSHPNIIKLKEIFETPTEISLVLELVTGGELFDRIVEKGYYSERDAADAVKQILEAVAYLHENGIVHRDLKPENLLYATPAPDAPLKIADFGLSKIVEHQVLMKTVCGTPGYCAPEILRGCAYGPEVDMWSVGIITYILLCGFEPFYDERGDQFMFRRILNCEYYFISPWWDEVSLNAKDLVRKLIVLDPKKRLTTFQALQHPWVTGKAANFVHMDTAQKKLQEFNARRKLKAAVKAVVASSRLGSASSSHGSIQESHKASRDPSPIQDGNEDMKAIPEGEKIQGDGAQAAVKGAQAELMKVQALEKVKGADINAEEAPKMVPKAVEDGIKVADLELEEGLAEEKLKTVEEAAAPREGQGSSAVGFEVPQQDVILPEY

[3] = biological target: Cyclin-G-associated kinase (Homo sapiens) (UniProt O14976); test: Inhibition of GAK (unknown origin) assessed as remaining activity at 1 uM by Kinome scan method relative to control
[4] = biological target: Dual specificity mitogen-activated protein kinase kinase 4 (Homo sapiens) (UniProt P45985); test: Inhibition of MEK4 (unknown origin) assessed as remaining activity at 1 uM by Kinome scan method relative to control
[5] = biological target: T3, Aurora kinase C (Homo sapiens) (UniProt Q9UQB9); test: Inhibition of AURKC (unknown origin) assessed as remaining activity at 1 uM by Kinome scan method relative to control
T3 sequence (whole entry): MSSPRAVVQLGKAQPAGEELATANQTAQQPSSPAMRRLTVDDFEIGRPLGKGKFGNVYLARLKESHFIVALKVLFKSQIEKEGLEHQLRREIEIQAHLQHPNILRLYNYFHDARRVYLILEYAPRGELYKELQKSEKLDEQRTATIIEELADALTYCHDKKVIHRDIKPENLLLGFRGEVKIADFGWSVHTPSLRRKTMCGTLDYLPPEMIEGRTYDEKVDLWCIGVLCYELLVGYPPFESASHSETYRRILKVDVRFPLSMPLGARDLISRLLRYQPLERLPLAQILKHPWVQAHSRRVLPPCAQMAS

[6] = biological target: Non-receptor tyrosine-protein kinase TYK2 (Homo sapiens) (UniProt P29597); test: Inhibition of TYK2 JH1 domain (unknown origin) assessed as remaining activity at 1 uM by Kinome scan method relative to control
[7] = biological target: Ribosomal protein S6 kinase alpha-4 (Homo sapiens) (UniProt O75676); test: Inhibition of C-terminal kinase domain RPS6KA4 (unknown origin) assessed as remaining activity at 1 uM by Kinome scan method relative to control
[8] = biological target: T4, cGMP-dependent protein kinase 1 (Homo sapiens) (UniProt Q13976); test: Inhibition of PRKG1 (unknown origin) assessed as remaining activity at 1 uM by Kinome scan method relative to control
T4 sequence (whole entry): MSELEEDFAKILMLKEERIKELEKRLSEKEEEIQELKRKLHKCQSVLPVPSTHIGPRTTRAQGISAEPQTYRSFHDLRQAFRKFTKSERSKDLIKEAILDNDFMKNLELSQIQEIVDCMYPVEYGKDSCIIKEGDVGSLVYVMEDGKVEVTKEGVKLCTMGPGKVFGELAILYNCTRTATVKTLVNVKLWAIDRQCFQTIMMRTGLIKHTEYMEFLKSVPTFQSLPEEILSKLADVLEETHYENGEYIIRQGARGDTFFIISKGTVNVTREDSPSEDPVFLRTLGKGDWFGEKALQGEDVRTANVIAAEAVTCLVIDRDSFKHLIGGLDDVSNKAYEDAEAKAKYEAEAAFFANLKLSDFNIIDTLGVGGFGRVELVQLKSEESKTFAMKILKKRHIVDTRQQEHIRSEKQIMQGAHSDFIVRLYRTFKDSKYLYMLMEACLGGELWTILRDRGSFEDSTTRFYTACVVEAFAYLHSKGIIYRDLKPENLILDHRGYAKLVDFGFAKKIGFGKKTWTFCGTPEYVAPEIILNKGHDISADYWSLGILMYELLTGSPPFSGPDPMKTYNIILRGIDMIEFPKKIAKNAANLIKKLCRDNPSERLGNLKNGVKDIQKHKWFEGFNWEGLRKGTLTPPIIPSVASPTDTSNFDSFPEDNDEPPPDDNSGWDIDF

Non-receptor tyrosine-protein kinase TYK2 (Homo sapiens), sequence (P29597 whole entry, the tested form may be a part): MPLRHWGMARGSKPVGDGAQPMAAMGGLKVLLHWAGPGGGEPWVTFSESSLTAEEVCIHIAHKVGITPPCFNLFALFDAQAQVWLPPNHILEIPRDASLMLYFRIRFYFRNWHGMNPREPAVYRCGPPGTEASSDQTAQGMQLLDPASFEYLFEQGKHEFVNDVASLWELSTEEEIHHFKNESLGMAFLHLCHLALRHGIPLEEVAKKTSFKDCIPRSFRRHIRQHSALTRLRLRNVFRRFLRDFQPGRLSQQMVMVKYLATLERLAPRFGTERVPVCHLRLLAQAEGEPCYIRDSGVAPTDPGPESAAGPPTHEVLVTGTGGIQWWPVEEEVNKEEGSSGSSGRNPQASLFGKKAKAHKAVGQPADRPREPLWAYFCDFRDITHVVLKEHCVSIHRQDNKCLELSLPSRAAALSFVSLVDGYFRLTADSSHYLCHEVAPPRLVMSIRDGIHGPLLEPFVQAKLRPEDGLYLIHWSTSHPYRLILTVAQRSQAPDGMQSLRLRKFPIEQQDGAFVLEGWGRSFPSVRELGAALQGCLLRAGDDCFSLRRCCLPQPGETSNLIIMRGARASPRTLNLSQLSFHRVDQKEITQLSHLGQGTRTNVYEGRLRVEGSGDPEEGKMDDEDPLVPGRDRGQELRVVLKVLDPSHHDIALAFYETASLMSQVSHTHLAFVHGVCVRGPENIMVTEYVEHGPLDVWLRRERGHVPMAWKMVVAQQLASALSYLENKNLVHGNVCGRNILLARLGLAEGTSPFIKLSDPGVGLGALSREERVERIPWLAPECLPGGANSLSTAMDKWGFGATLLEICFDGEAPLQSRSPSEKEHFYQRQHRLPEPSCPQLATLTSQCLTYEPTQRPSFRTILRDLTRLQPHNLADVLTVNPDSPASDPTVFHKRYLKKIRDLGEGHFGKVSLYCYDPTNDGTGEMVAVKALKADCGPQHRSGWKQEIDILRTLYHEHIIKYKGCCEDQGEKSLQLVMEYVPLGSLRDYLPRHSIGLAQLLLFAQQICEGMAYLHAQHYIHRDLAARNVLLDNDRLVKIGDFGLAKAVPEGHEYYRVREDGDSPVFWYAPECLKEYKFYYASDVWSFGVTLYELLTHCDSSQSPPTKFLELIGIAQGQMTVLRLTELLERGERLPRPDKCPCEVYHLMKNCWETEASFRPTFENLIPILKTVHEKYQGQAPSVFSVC
Ribosomal protein S6 kinase alpha-4 (Homo sapiens), sequence (O75676 whole entry, looked up, the tested form may be a part): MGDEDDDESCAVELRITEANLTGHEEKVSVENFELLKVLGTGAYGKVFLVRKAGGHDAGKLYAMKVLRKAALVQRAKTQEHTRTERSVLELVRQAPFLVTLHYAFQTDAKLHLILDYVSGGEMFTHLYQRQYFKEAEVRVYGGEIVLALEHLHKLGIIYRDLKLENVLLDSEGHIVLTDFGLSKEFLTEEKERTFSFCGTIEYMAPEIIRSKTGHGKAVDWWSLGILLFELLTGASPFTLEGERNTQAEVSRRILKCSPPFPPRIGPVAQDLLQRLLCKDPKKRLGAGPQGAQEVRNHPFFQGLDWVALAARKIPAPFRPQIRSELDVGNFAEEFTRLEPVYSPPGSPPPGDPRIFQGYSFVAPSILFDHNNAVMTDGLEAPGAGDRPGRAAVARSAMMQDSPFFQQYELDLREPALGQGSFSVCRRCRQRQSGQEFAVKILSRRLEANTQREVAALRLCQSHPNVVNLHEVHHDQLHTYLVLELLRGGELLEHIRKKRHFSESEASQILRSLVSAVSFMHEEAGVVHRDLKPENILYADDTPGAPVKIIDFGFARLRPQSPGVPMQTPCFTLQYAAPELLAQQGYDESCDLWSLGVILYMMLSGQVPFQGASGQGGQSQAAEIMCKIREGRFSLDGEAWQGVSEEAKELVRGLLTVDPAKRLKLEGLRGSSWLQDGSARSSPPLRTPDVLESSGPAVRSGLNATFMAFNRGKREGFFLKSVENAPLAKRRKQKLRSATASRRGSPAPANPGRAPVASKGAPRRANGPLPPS
Cyclin-G-associated kinase (Homo sapiens), sequence (O14976 whole entry): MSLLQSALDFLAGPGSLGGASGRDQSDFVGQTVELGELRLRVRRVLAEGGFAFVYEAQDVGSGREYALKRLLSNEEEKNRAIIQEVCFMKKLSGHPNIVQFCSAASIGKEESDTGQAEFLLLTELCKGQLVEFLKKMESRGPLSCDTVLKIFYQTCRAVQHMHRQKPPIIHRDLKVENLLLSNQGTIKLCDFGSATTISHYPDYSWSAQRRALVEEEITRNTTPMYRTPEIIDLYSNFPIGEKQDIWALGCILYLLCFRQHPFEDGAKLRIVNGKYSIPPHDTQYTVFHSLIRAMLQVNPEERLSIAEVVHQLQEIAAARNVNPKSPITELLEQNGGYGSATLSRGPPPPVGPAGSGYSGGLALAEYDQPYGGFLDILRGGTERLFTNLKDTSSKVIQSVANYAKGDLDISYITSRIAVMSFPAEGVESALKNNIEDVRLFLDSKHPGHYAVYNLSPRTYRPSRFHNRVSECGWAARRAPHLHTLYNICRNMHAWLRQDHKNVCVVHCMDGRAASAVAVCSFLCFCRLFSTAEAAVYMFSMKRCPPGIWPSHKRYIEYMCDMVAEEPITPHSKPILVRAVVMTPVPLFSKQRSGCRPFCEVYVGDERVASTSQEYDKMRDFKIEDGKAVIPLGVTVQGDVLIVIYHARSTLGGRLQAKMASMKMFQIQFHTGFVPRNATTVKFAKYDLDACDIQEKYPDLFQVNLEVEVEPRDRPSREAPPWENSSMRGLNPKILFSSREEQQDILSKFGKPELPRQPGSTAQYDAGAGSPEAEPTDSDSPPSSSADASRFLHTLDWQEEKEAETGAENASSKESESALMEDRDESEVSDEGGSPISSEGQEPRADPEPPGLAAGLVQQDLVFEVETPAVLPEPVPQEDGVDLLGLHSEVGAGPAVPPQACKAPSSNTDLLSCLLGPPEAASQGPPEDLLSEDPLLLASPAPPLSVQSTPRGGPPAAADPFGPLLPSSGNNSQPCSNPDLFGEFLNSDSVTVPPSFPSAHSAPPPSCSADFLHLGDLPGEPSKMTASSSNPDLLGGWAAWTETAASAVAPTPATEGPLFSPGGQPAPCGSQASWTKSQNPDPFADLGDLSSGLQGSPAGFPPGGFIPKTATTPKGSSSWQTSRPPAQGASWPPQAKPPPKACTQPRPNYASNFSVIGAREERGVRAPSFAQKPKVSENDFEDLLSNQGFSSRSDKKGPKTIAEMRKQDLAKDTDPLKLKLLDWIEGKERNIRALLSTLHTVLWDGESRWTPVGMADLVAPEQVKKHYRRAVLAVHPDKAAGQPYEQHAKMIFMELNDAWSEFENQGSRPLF
Dual specificity mitogen-activated protein kinase kinase 4 (Homo sapiens), sequence (P45985 whole entry): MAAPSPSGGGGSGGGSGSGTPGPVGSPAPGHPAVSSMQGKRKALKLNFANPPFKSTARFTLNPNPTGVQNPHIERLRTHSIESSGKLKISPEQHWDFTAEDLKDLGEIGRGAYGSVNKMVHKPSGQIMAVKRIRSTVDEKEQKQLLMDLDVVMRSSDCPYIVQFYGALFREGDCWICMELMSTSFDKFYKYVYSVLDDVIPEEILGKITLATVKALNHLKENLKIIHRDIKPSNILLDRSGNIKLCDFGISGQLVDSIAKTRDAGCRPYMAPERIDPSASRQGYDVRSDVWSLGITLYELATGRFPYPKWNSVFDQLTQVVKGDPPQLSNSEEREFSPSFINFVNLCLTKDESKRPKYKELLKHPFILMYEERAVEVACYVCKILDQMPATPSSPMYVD

Row | Structure (SMILES) | Activity [1] [%] | Activity [2] [%] | Activity [3] [%] | Activity [4] [%] | Activity [5] [%] | Activity [6] [%] | Activity [7] [%] | Activity [8] [%]
1 | Nc1ccccc1Nc1ccc2c(c1)CCc1ccccc1C2=O | 99 | 90 | 93 | 64 | 91 | 83 | 85 | 88
2 | O=C1c2ccc(Nc3ccc(F)cc3F)cc2CCc2ccc(OC[C@H](O)CO)cc21 [Skepinone-L] | 94 | 90 | 53 | 78 | 90 | 58 | 100 | 100
